Values quoted from earlier work as cited in US9011962B2, “Bovine meat compositions having enhanced quality, nutritive and health values obtained from enrichment diets” (priority 2007, dated 2015).

What was measured:
[1] = in vivo

For `C[Se]CC[C@H](N)C(=O)O` [Selenomethionine, selenomethionine], the “Bioavailability (relative)” value [1] is listed as 245.
For `[Se]` [selenium], the “upper limit from food and supplements likely to pose no risk of adverse health effects” value (FDA) is given as 400 micrograms per day, the “safe daily intake for human use” value (Rayman review) is given as “approximately 15 micrograms per kilogram body weight per day” and the “lowest-observed adverse effect level of selenium intake” value (recognized by FDA) is given as 900 micrograms per day. For the same compound, the “no-observed adverse effect level” value (recognized by FDA) was 800 micrograms per day.
